Laboratory results as given in US20240132477A1, “Benzimidazole Derivatives and Their Use As Inhibitors of ITK For The Treatment of Skin Disease” (PFIZER INC., priority 2020, published 2024).

Key:
[1] = tested on: IL-2 in supernatants from activated CD4+ human T-cells; test: IL-2 inhibition in supernatants from activated CD4+ human T-cells (cisbio HTRF); type: cell-based; conditions: T-cell; geometric mean of count n; activated CD4+ human T-cells, 20 to 24 hrs; read-out: IL-2 IC50
Method: IL-2-Inhibition Activity, IC50 (uM)
IL-2 inhibition activity in supernatants from activated CD4+ human T-cells was determined by measuring the effect of a test compound on the activity using the cisbio HTRF™ technology.
Human CD4+ T cells were activated with CD3/CD28 for 3 days and expanded for an additional 4-6 days (7 to 9 days total). On day 0, frozen CD4+ T cells were thawed, treated with CD3/CD28 Dynabeads, and incubated at 37° C./5% CO2. On day 3, the beads were removed, and the cells were diluted to 5×10^5 cells/cm^2, placed in G-Rex10 flask, and incubated at 37° C./5% CO2. On day 7 to day 9 the cells were removed from the G-Rex flasks, counted and diluted back to 1×10^6 cells/ml in standard tissue culture flask.
The expanded CD4+ T-cells were centrifuged at 300×g for 10 minutes and resuspended to 0.5 million cells per ml (30,000 cells/well). 60 μl of CD4+ T cells were added per well to a 384 well plate containing 0.1 μL of varying concentrations of test compound in DMSO. The plates were incubated for 15 min at 37° C./5% CO2. 20 μl of diluted ImmunoCult™ (STEMCELL Technologies, 1:12.5 in T cell assay media) were added to all wells of the plate (1:50 final assay concentration). The plates were incubated for an additional 20 to 24 hrs at 37° C./5% CO2. The plates were centrifuged at 300×g for 10 minutes. 16 μL of supernatant was removed and combined with 4 μl of IL-2 HTRF Abs. (cisbio kit). Plates were incubated for 3 hours at RT and read with an EnVision plate reader at 665 nm and 615 nm wavelengths. The concentrations and resulting effect values for the tested compound were plotted and the concentration of compound required for 50% effect (IC50) was determined with the four-parameter logistic dose response equation.

[2] = molecular target: IL-2-Inducible T-Cell Kinase (ITK) (Homo sapiens (Human), UniProt Q08881); test: ITK enzyme assay; type: biochemical; conditions: geometric mean of count n; ITK FL enzyme, BTK peptide substrate
Sequence of IL-2-Inducible T-Cell Kinase (ITK) (Q08881 whole entry): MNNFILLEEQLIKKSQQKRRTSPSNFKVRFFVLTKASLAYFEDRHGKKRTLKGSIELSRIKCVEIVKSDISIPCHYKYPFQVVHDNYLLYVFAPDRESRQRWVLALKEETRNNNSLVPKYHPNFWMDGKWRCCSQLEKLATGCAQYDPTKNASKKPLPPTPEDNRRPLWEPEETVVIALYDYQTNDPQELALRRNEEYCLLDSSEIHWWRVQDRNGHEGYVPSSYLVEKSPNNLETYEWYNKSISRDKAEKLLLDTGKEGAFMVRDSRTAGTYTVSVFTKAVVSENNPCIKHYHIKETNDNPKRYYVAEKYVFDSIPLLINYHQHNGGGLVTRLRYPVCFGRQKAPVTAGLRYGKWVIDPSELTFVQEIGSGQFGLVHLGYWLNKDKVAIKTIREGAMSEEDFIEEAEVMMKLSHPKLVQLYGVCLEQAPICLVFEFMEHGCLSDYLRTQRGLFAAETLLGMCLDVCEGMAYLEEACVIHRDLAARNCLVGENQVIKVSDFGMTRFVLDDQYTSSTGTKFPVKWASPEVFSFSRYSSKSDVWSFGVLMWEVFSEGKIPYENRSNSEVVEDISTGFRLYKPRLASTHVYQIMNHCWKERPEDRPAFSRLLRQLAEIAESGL
Method: IL-2-Inducible T-Cell Kinase (ITK) Activity, IC50 (uM)
ITK activity was determined by measuring the effect of a test compound in an ITK enzyme assay.
1.0 M HEPES Buffer pH 7.5 solution was prepared as follows: 238.3 g HEPES free acid (Sigma) and 800 mL of water were combined, and the mixture was stirred until complete dissolution. The pH was adjusted to 7.5 via titration with 5N NaOH and the volume adjusted to 1000 mL. The solution was filtered and sterilized.
ITK assay buffer was prepared as follows: 50 mL of HPLC-grade water was treated with 2 mL of 1.0 M HEPES Buffer, 500 μL of 2% Gelatin (Sigma), 1.0 mL of aqueous MgCl2 solution (1.0 M), and 1.0 mL of aqueous glutathione solution (0.5 M), and the solution was mixed. The solution was brought to 99 mL in a graduated cylinder by addition of water and sterilized through a 0.2 μm filter. 0.1 mL of Brij-35™ Surfact-AmpS™ Detergent Solution (10% w/v aqueous solution, ThermoFisher) and 1.0 mL of ATP (Teknova, 100 mM) were added and the solution was mixed.
Preparation of 1.33×ITK enzyme solution was as follows: 49.99 mL of ITK assay buffer was treated with 4.1 μL of ITK enzyme (ITK FL (N-Flag and C-His tagged, ˜72 kDa) Lake Pharma, 0.25 mg/ml in a buffer containing 25 mM Tris pH 7.8, 150 mM NaCl, 10% glycerol and 2 mM TCEP) and the mixture was gently agitated. The resulting solution was stored on ice. 30 Minutes prior to use, the enzyme solution was removed from ice and equilibrated to RT by incubation in a RT water bath.
Preparation of 4×ITK substrate solution was as follows: 50 mL of ITK assay buffer was treated with 100 μL of BTK peptide (China Peptide Company, 2 mM stock solution in DMSO). The tube was capped, mixed by gently inverting the tube, and then stored on ice. 30 Minutes prior to use, the substrate solution was removed from ice and equilibrated to RT by incubation in a RT water bath.
At the time of assay, 7.5 μL of the 1.33×ITK enzyme solution was added to plate wells containing 0.1 μL of varying concentrations of test compound in DMSO. The plate was incubated 30 min at RT. The plate wells were each treated with 2.5 uL of the 4×ITK substrate solution and the plate was sealed (TopSeal™, Perkin Elmer). The plate was spun at 1000 rpm for 30 sec and then incubated for 60 min at RT. The seal was removed, and each well was treated with 10 μL of Stop/Detect Buffer (20 mM HEPES pH 7.5, 0.01% gelatin, 1 nM LANCE PT66 (Perkin Elmer), 16.5 μg/ml Surelight APC (Perkin Elmer), 10 mM EDTA, 250 mM NaCl). The plate was again covered and was spun at 1000 rpm for 30 seconds. The plate was allowed to incubate overnight at RT and in a closed carrier to reduce dehydration. The seal was removed, and the fluorescence was read with a plate reader with […]. The concentrations and resulting effect values for the tested compound were plotted and the concentration of compound required for 50% effect (IC50) was determined with the four-parameter logistic dose response equation.

SMILES | IC50 [1] [nM] | IC50 [2] [nM]
COC(C)(C)C(=O)N(C)c1cc2nc(-c3n[nH]c4c3C[C@@H]3C[C@]3(C)C4)[nH]c2cc1C [Example 39, 2-Methoxy-N,2-dimethyl-N-(6-methyl-2-((4aS,5aR)-5a-methyl-1,4,4a,5,5a,6-hexahydrocyclopropa[f]indazol-3-yl)-1H-benzo[d]imidazol-5-yl)propenamide] | 268 | 74
CC(=O)N(C)c1cc2nc(-c3n[nH]c4c3C[C@@H]3C[C@]3(C)C4)[nH]c2cc1Br [Example 9, N-(6-bromo-2-((4aS,5aR)-5a-methyl-1,4,4a,5,5a,6-hexahydrocyclopropa[f]indazol-3-yl)-1H-benzo[d]imidazol-5-yl)-N-methylacetamide] | 139 | 20
Cc1cc2nc(-c3n[nH]c4c3C[C@@H]3C[C@]3(C)C4)[nH]c2cc1N(C)C(=O)C1(F)CCOCC1 [Example 12, 4-fluoro-N-methyl-N-(5-methyl-2-((4aS,5aR)-5a-methyl-1,4,4a,5,5a,6-hexahydrocyclopropa[f]indazol-3-yl)-1H-benzo[d]imidazol-6-yl)tetrahydro-2H-pyran-4-carboxamide] | 47 | 7
Cc1cc2[nH]c(-c3n[nH]c4c3C[C@@H]3C[C@]3(C)C4)nc2cc1N(C)C(=O)C1CCC1 [Example 36, N-Methyl-N-(6-methyl-2-((4aS,5aR)-5a-methyl-1,4,4a,5,5a,6-hexahydrocyclopropa[f]indazol-3-yl)-1H-benzo[d]imidazol-5-yl)cyclobutanecarboxamide] | 57 | 5
CCN(C(C)=O)c1cc2nc(-c3n[nH]c4c3C[C@@H]3C[C@]3(C)C4)[nH]c2cc1C [Example 5, N-ethyl-N-(6-methyl-2-((4aS,5aR)-5a-methyl-1,4,4a,5,5a,6-hexahydrocyclopropa[f]indazol-3-yl)-1H-benzo[d]imidazol-5-yl)acetamide] | 86 | 16
CC(=O)N(C)c1cc2nc(-c3n[nH]c4c3C[C@@H]3C[C@]3(C)C4)[nH]c2c(F)c1C [Example 8, N-(7-fluoro-6-methyl-2-((4aS,5aR)-5a-methyl-1,4,4a,5,5a,6-hexahydrocyclopropa[f]indazol-3-yl)-1H-benzo[d]imidazol-5-yl)-N-methylacetamide] | 129 | 20
CC(=O)N(C)CC(=O)N(C)c1cc2nc(-c3n[nH]c4c3C[C@@H]3C[C@]3(C)C4)[nH]c2cc1C [Example 21, N-Methyl-N-(5-methyl-2-((4aS,5aR)-5a-methyl-1,4,4a,5,5a,6-hexahydrocyclopropa[f]indazol-3-yl)-1H-benzo[d]imidazol-6-yl)-2-(N-methylacetamido)acetamide] | 79 | 4
CC(=O)N(C)c1ccc2[nH]c(-c3n[nH]c4c3C[C@H]3C(F)(F)[C@@]3(C)C4)nc2c1 [Example 3, N-(2-((4aR,5aS)-5,5-difluoro-5a-methyl-1,4,4a,5,5a,6-hexahydrocyclopropa[f]indazol-3-yl)-1H-benzo[d]imidazol-5-yl)-N-methylacetamide] | 848 | 821

Results, then the compound that gave them:

IC50 [1] [nM] | IC50 [2] [nM] | SMILES
43 | 4 | Cc1cc2[nH]c(-c3n[nH]c4c3C[C@@H]3C[C@]3(C)C4)nc2cc1N(C)C(=O)CN1CCCCCC1=O [Example 34, N-Methyl-N-(6-methyl-2-((4aS,5aR)-5a-methyl-1,4,4a,5,5a,6-hexahydrocyclopropa[f]indazol-3-yl)-1H-benzo[d]imidazol-5-yl)-2-(2-oxoazepan-1-yl)acetamide]
489 | 77 | CC[C@@H](C(=O)N(C)c1cc2nc(-c3n[nH]c4c3C[C@@H]3C[C@]3(C)C4)[nH]c2cc1C)N1CCCC1=O [Example 27, (S)-N-Methyl-N-(6-methyl-2-((4aS,5aR)-5a-methyl-1,4,4a,5,5a,6-hexahydrocyclopropa[f]indazol-3-yl)-1H-benzo[d]imidazol-5-yl)-2-(2-oxopyrrolidin-1-yl)butanamide]
43 | 5 | Cc1cc2[nH]c(-c3n[nH]c4c3C[C@@H]3C[C@]3(C)C4)nc2cc1N(C)C(=O)C(C)C [Example 22, N-Methyl-N-(5-methyl-2-((4aS,5aR)-5a-methyl-1,4,4a,5,5a,6-hexahydrocyclopropa[f]indazol-3-yl)-1H-benzo[d]imidazol-6-yl)isobutyramide]
196 | 47 | Cc1cc2[nH]c(-c3n[nH]c4c3C[C@@H]3C[C@]3(C)C4)nc2cc1N(C)C(=O)C(C)N1CCCCC1 (stereo partly shown) [Example 14]
370 | 54 | Cc1cc2[nH]c(-c3n[nH]c4c3C[C@@H]3C[C@]3(C)C4)nc2cc1N(C)C(=O)C(C)N1CCCC1=O (stereo partly drawn) [Example 18, N-Methyl-N-(5-methyl-2-((4aS,5aR)-5a-methyl-1,4,4a,5,5a,6-hexahydrocyclopropa[f]indazol-3-yl)-1H-benzo[d]imidazol-6-yl)-2-(2-oxopyrrolidin-1-yl)propenamide]
59 | 4 | Cc1cc2[nH]c(-c3n[nH]c4c3C[C@@H]3C[C@]3(C)C4)nc2cc1N(C)C(=O)CN1CCCCC1=O [Example 20, N-Methyl-N-(5-methyl-2-((4aS,5aR)-5a-methyl-1,4,4a,5,5a,6-hexahydrocyclopropa[f]indazol-3-yl)-1H-benzo[d]imidazol-6-yl)-2-(2-oxopiperidin-1-yl)acetamide]
572 | 72 | Cc1cc2[nH]c(-c3n[nH]c4c3C[C@@H]3C[C@]3(C)C4)nc2cc1N(C)C(=O)[C@H](C)N1CCCC1=O [Example 25, (S)-N-Methyl-N-(6-methyl-2-((4aS,5aR)-5a-methyl-1,4,4a,5,5a,6-hexahydrocyclopropa[f]indazol-3-yl)-1H-benzo[d]imidazol-5-yl)-2-(2-oxopyrrolidin-1-yl)propenamide]
324 | 31 | C[C@@H](C(=O)N(C)c1cc(F)c2nc(-c3n[nH]c4c3C[C@@H]3C[C@]3(C)C4)[nH]c2c1)N1CCCOC1=O [Example 11, (S)-N-(4-fluoro-2-((4aS,5aR)-5a-methyl-1,4,4a,5,5a,6-hexahydrocyclopropa[f]indazol-3-yl)-1H-benzo[d]imidazol-6-yl)-N-methyl-2-(2-oxo-1,3-oxazinan-3-yl)propenamide]
59 | 3 | Cc1cc2[nH]c(-c3n[nH]c4c3C[C@@H]3C[C@]3(C)C4)nc2cc1N(C)C(=O)CN1CCCOC1=O [Example 1, N-Methyl-N-(6-methyl-2-((4aS,5aR)-5a-methyl-1,4,4a,5,5a,6-hexahydrocyclopropa[f]indazol-3-yl)-1H-benzo[d]imidazol-5-yl)-2-(2-oxo-1,3-oxazinan-3-yl)acetamide]
